# Legend:
# rabbits [1] = assay: Blood glucose in rabbits after i.p. administration before glucose challenge; format: in vivo, rabbit; details: i.p. 15 minutes before glucose challenge of 250 mg/kg, FIG. 10
# Description: FIG. 10 depicts blood glucose when a standard regular insulin solution (0.3 ml of 3.1 IU/ml) or an extraction of the pro-micelle (2.5 ml of 0.4 IU/ml) was administered intraperitonally (i.p.) to rabbits 15 minutes before a glucose challenge of 250 mg/kg.
# rabbits [2] = assay: Blood glucose in rabbits after i.v. injection before glucose challenge; format: in vivo, rabbit
# Description: FIG. 11 depicts blood glucose levels when a standard regular insulin (0.2 ml of 3.1 IU/ml) or an extraction of the pro-micelle (1.5 ml. of 0.4 IU/ml) was intravenously (i.v.) injected into rabbits one minute before a glucose challenge of 250 mg/kg. […] With the formulation of the invention, a hypoglycemic effect was noticed within 35 minutes, and lasted for the duration of the experiment of 120 minutes or more.
substance,measurement,setting,value
"standard regular insulin: Standard regular insulin solution, 3.1 IU/ml, comparator",effect on blood sugar after i.p. injection,rabbits [1],decreased blood sugar
same,duration of hypoglycemic effect,rabbits [2]; i.v.,short in duration
same,blood glucose course after i.v. injection,"rabbits [2]; i.v. one minute before glucose challenge of 250 mg/kg, FIG. 11",rapidly decreased from 20 to 45 minutes
same,blood glucose relative to control level within 90 minutes of injection,"rabbits [2]; i.v., within 90 minutes of the insulin injection",10-30 % of the control level
